Experimental data: patent publication US20190262300A1, “COMPOSITION FOR PREVENTING OR TREATING PSORIASIS CONTAINING MONOACETYL DIACYLGLYCEROL COMPOUND” (ENZYCHEM LIFESCIENCES CORPORATION, priority 2016, published 2019)

How the values were obtained:
Type in all cases: in vivo, Balb/c mice
IL-17 = test: Immunohistochemical staining of IL-17 expression in IMQ-induced psoriatic skin; details: PLAG 250 mg/kg/day oral day 0 to day 4 with Aldara cream 40 mg/day; back skin
Excerpt: (§1) In order to confirm the preventive and therapeutic effects of psoriasis by 1-palmitoyl-2-linoleoyl-3-acetylglycerol (EC-18 or PLAG), imiquimod (hereinafter, referred to as IMQ), which is commonly used to induce skin inflammation i.e., psoriasis, such as infiltration of immune cells, epidermal hyperplasia, etc., was used as a ligand for TLR7 and TLR8 to carry out an experiment using psoriasis-induced mouse models. As an experiment model, 6 to 8-week-old female Balb/c-based mice (KOATECH, Pyeongtaek, Korea) were maintained under a specific pathogen free (SPF) environment and used. PLAG (ENZYCHEM LIFESCIENCES, Korea) was prepared before in vivo or in vitro treatment. Also, statistical analysis was performed using a paired t-test.
(§2) Mice were randomly divided into three groups: control group, psoriasis-induced group, and PLAG group. As the IMQ, Aldara cream (3M Health Care Limited, UK) containing 5% of IMQ was used.
(§3) For 5 days from day 0 to day 4, the control group was treated with vaseline (Unilever, UK) and PBS, the psoriasis-induced group was treated with Aldara cream and PBS, and the PLAG group was treated with Aldara cream and PLAG. Vaseline and Aldara cream were applied to the back of mice at a dose of 40 mg/day, and PBS and PLAG were orally administered at a dose of 250 mg/kg/day. On Day 5, which was the 6th day, the mice were sacrificed. […]

[1] = system: psoriasis-induced mouse models (IMQ); test: Size and weight of spleen in IMQ-induced psoriasis mice; details: PLAG 250 mg/kg/day oral day 0 to day 4 with Aldara cream 40 mg/day, vs control group
Excerpt: as §1, §2
For 5 days from day 0 to day 4, the control group was treated with vaseline (Unilever, UK) and PBS, the psoriasis-induced group was treated with Aldara cream and PBS, and the PLAG group was treated with Aldara cream and PLAG. […]
The size of the spleen removed from the mice of Example 1 was measured using a ruler, and the weight was measured using a scale.

[2] = system: psoriasis-induced mouse models (IMQ); test: H&E histology of back skin (IMQ-induced chronic inflammatory skin disorder); details: PLAG 250 mg/kg/day oral day 0 to day 4 with Aldara cream 40 mg/day
Excerpt: as §1, §2
For 5 days from day 0 to day 4, the control group was treated with vaseline (Unilever, UK) and PBS, the psoriasis-induced group was treated with Aldara cream and PBS, and the PLAG group was treated with Aldara cream and PLAG. Vaseline and Aldara cream were applied to the back of mice at a dose of 40 mg/day, and PBS and PLAG were orally administered at a dose of 250 mg/kg/day. On Day 5, which was the 6th day, the mice were sacrificed.
The thickness of the back skin of the mice of Example 1 was stained with the following H&E (Hematoxylin and Eosin) staining method, and histologically observed and evaluated under an optical microscope (Olympus, Tokyo, Japan) 5. The H&E staining method is as follows:
The back skin tissue of the mice was fixed in a 10% buffered formalin solution for 24 hours, embedded in paraffin and cut into 4 μm-thick sections. After removing paraffin and rehydrating the sections, the sections were stained with hematoxylin and eosin.

[3] = system: neutrophil recruitment in the back skin; test: Immunohistochemical staining of neutrophil recruitment in back skin; details: PLAG 250 mg/kg/day oral day 0 to day 4 with Aldara cream 40 mg/day
Excerpt: as §1, §2, §3

[4] = system: psoriasis-induced mouse models (IMQ); test: Keratinization and thickness of back skin of IMQ-induced psoriasis mice; details: vs psoriasis-induced group
Excerpt: as §1
Mice were randomly divided into three groups: control group, psoriasis-induced group, and PLAG group. As the IMQ, Aldara cream (3M Health Care Limited, UK) containing 5% of IMQ was used. […]
In order to investigate whether PLAG prevents the progression of psoriasis, psoriasis was induced using IMQ cream (Aldara cream) as in Example 1. […] Subsequently, for the measurement of thickness of back skin, the back skin was removed, and the thickness of the removed back skin was measured using a caliper. The thickness of the measured back skin is shown in the graph of FIG. 3(B).

`CCCCC/C=C\C/C=C\CCCCCCCC(=O)OC(COC(C)=O)COC(=O)CCCCCCCCCCCCCCC` (racemic) [PLAG, 1-palmitoyl-2-linoleoyl-3-acetyl-rac-glycerol] was tested. Which “IL-17 expression in the skin blood vessels (immunohistochemistry)” value (IL-17) did it give?
Its value is “significantly inhibited”.

And the size of spleen ([1]; ruler)?
Its size of spleen is “increased compared to the control group”.

What about the weight of spleen ([1]; scale) of the same molecule?
Its weight of spleen is “maintained the same as the weight of spleen of the control group”.

What about the “hair follicles (H&E)” value [2] of the same molecule?
Its value is “present as in the control group”.

And the “neutrophils between the stratum corneum (H&E)” value [2]?
Its value is “not found”.

And the “thicknesses of the stratum corneum and the epidermis (H&E)” value ([2]; vs psoriasis-induced group)?
The value was “remarkably reduced”.

What about the “level of neutrophil recruitment in back skin (NIMP-R14 immunohistochemistry)” value [3] of the same molecule?
The value was “significantly lower than that in the psoriasis-induced group”.

And the “thickness of the back skin (caliper)” value ([4]; PLAG 250 mg/kg/day oral day 0 to day 4 with Aldara cream 40 mg/day, day 5)?
The value was “significantly decreased”.

What about the “keratosis on the back of the mice” value ([4]; PLAG 250 mg/kg/day oral day 0 to day 4 with Aldara cream (5% IMQ) 40 mg/day, photographed day 5) of the same molecule?
Its value is “remarkably alleviated”.
